# Data: US12611406B2, “Oxopiperazine derivatives for the treatment of cancer” (Inthera Bioscience AG, priority 2020, dated 2026)
# Where two headings read alike, the source gives them in different places.
# How the values were obtained:
# Y-79 = assay: Caspase 3/7 activation (apoptosis); assay type: cell-based; set-up: key: “+” (present); “−” (absent); settings: Rb x, p53 wt
# From the text: (§1) It was noted that cancer cell lines that were growth inhibited at lower concentrations of Compound 1 more frequently responded to Compound 1 exposure with an apoptotic reaction (FIG. 2). Since PC cell lines were among the cancer cell types displaying a particularly high sensitivity to Compound 1 treatment (FIG. 1), the potentially underlying biological reasons for an apoptotic response were investigated in a set of PC cell lines consisting of DU-145, LNCaP, 22Rv1 and PC3 cells.
# (§2) In table 1, “wt”=wild-type; “x”=cells harboring Rb and p53 deficiencies; “+” (present) or “−” (absent) indicate the arrest (i.e. accumulation) of cells in S-phase triggered by Compound 1, which coincided with accumulation of the DNA damage marker phosphorylated gamma H2AX (γH2AX; see FIG. 3A). These events are followed by activation of caspases 3 and 7 as indicators of cell apoptosis as indicated by “+” (present) or “−” (absent). In cancer cells with intact Rb and/or p53 functions (wt=wild-type), Compound 1 induced growth arrest but not a substantial increase of cells in S-phase (=S-phase arrest). Upon release of treatment, such cells are able to proliferate again.
# DU-145 = assay: Caspase 3/7 activation (apoptosis); assay type: cell-based; set-up: key: “+” (present); “−” (absent); settings: Rb x, p53 x
# From the text: as §1, §2
# NCI-H660 = assay: Caspase 3/7 activation (apoptosis); assay type: cell-based; set-up: key: “+” (present); “−” (absent); settings: Rb x, p53 x
# From the text: as §1, §2
# NCI-H209 = assay: Caspase 3/7 activation (apoptosis); assay type: cell-based; set-up: key: “+” (present); “−” (absent); settings: Rb x, p53 x
# From the text: as §1, §2
# NCI-H69 = assay: Caspase 3/7 activation (apoptosis); assay type: cell-based; set-up: key: “+” (present); “−” (absent); settings: Rb x, p53 x
# From the text: as §1, §2
# BT-549 = assay: Caspase 3/7 activation (apoptosis); assay type: cell-based; set-up: key: “+” (present); “−” (absent); settings: Rb x, p53 x
# From the text: as §1, §2
# NCI-H146 = assay: Caspase 3/7 activation (apoptosis); assay type: cell-based; set-up: key: “+” (present); “−” (absent); settings: Rb x, p53 x
# From the text: as §1, §2
# Hut-78 = assay: Caspase 3/7 activation (apoptosis); assay type: cell-based; set-up: key: “+” (present); “−” (absent); settings: Rb x, p53 x
# From the text: as §1, §2
# SCLC-21H = assay: Caspase 3/7 activation (apoptosis); assay type: cell-based; set-up: key: “+” (present); “−” (absent); settings: Rb x, p53 x
# From the text: as §1, §2
# 22Rv1 = assay: Caspase 3/7 activation (apoptosis); assay type: cell-based; set-up: key: “+” (present); “−” (absent); settings: Rb wt, p53 wt
# From the text: as §1, §2
# NCI-H82 = assay: Caspase 3/7 activation (apoptosis); assay type: cell-based; set-up: key: “+” (present); “−” (absent); settings: Rb x, p53 x
# From the text: as §1, §2
# PC3 = assay: Caspase 3/7 activation (apoptosis); assay type: cell-based; set-up: key: “+” (present); “−” (absent); settings: Rb wt, p53 x
# From the text: as §1, §2
# LNCaP = assay: Caspase 3/7 activation (apoptosis); assay type: cell-based; set-up: key: “+” (present); “−” (absent); settings: Rb wt, p53 wt
# From the text: as §1, §2
# [1] = 14-day daily oral repeated-dose DRF study in cynomolgus monkeys (mesylate salt); assay type: in vivo; settings: for half-life / AUC(0-t) / Cmax / Tmax: cynomolgus monkey, plasma
# Description: The objective of this exploratory study was to assess the TK profile of Compound 1 when repeatedly administered via the oral route to cynomolgus monkeys.
# Compound 1 (mesylate salt) administration in this dose-range-finder study was intended once daily for up to 14 consecutive days by oral gavage to groups of naïve cynomolgus monkeys (n=1/sex/group) at dose levels of 0.5, 4, 8, or 12 mg Compound 1 per kg bodyweight and day, using a staggered approach. The vehicle was 0.5% Methylcellulose in water. The actual dose levels and durations of dosing were flexibly adapted according to signs of tolerability and PK: Group 1 animals were dosed at 0.5 mg/kg/day for 10 days and after a 4-day washout phase for additional 12 days at 4 mg/kg/days; Group 2 animals at 12 mg/kg/day for 11 days; Group 3 animals at 8 mg/kg for 10 (males) or 9 (females) days; and Group 4 animals at 8 mg/kg for 5 days, respectively, as summarized in Table 10.
# The animals in the final group 4 were dosed orally once daily or 5 days with 8 mg/kg Compound 1 before a 9-day recovery phase was given.
# PR6511 = PR6511 mouse PDX prostate cancer model, daily oral; assay type: in vivo
# Description: PR6511 represents a model which was not responsive any more to enzalutamide treatment. The dose in the 10 mg/kg group was reduced to 3 mg/kg from day 51 onwards. […] QD: once daily treatment. po: per os.
# Due to weight loss, animals of the 10 mg/kg group received a reduced dose of 3 mg/kg on study days 51 to 57.
# [2] = both sexes, po, 0.5 mg/kg, 0.5 mg/kg (Gr. 1), Day 1
# [3] = both sexes, po, 8 mg/kg, 8 mg/kg (Gr. 3), Day 1
# [4] = both sexes, po, 8 mg/kg, 8 mg/kg (Gr. 3), Day 5
# [5] = both sexes, po, 8 mg/kg, 8 mg/kg (Gr. 4), Day 1
# [6] = both sexes, po, 8 mg/kg, 8 mg/kg (Gr. 4), Day 5
# [7] = both sexes, po, 12 mg/kg, 12 mg/kg (Gr. 2), Day 1
# [8] = both sexes, po, 12 mg/kg, 12 mg/kg (Gr. 2), Day 7
# [9] = po, 0.5 mg/kg, 0.5 mg/kg (Gr. 1), Day 7
# [10] = po, 4 mg/kg, 4 mg/kg (Gr. 1), Day 1
# [11] = po, 4 mg/kg, 4 mg/kg (Gr. 1), Day 5
# [12] = po, 4 mg/kg, 4 mg/kg (Gr. 1), Day 11
# [13] = 10 mg/kg (3 mg/kg on days 51-57) once daily
smiles,measurement,setting,value
"CC(C)C[C@@H]1NCCN([C@@H](CC(C)C)C(=O)N2CCC3(C[C@@H]2C)OCC(CN2CCCC2)CO3)C1=O (stereo partly drawn) [Compound 1, (S)-3-isobutyl-1-((S)-4-methyl-1-((S)-8-methyl-3-(pyrrolidin-1-ylmethyl)-1,5-dioxa-9-azaspiro[5.5]undecan-9-yl)-1-oxopentan-2-yl)piperazin-2-one]","Caspase 3/7, 8",Y-79,−
same,"Caspase 3/7, 8",DU-145,+
same,Caspase 3/7 activation,NCI-H660,+
same,"Caspase 3/7, 8",NCI-H209,+
same,"Caspase 3/7, 8",NCI-H69,+
same,"Caspase 3/7, 8",BT-549,+
same,"Caspase 3/7, 8",NCI-H146,+
same,"Caspase 3/7, 8",Hut-78,+
same,"Caspase 3/7, 8",SCLC-21H,+
same,"Caspase 3/7, 8",22Rv1,−
same,"Caspase 3/7, 8",NCI-H82,+
same,"Caspase 3/7, 8",PC3,−
same,"Caspase 3/7, 8",LNCaP,−
same,half-life,"[1]; both sexes, oral, in general, all groups, read-out: mean terminal plasma elimination half-lives",4.4 to 8.4 h
same,AUC(0-t),[1]; [2],0.7 ng·h/mL
same,Cmax,[1]; [2],0.24 ng/mL
same,Tmax,[1]; [2],1.5 h
same,half-life,"[1]; both sexes, po, 0.5 mg/kg, 0.5 mg/kg (Gr. 1), Day 1, read-out: T1/2 (converted)",4.9 h
same,half-life,"[1]; both sexes, po, 4 mg/kg, 4 mg/kg (Gr. 1), Day 11, read-out: T1/2 (converted)",5.1 h
same,AUC(0-t),[1]; [3],64.9 ng·h/mL
same,Cmax,[1]; [3],21.7 ng/mL
same,Tmax,[1]; [3],1 h
same,half-life,"[1]; both sexes, po, 8 mg/kg, 8 mg/kg (Gr. 3), Day 1, read-out: T1/2 (converted)",4.6 h
same,AUC(0-t),[1]; [4],92 ng·h/mL
same,Cmax,[1]; [4],18.8 ng/mL
same,Tmax,[1]; [4],1 h
same,half-life,"[1]; both sexes, po, 8 mg/kg, 8 mg/kg (Gr. 3), Day 5, read-out: T1/2 (converted)",6.5 h
same,AUC(0-t),[1]; [5],30.4 ng·h/mL
same,Cmax,[1]; [5],8.95 ng/mL
same,Tmax,[1]; [5],1 h
same,half-life,"[1]; both sexes, po, 8 mg/kg, 8 mg/kg (Gr. 4), Day 1, read-out: T1/2 (converted)",5.4 h
same,AUC(0-t),[1]; [6],51.3 ng·h/mL
same,Cmax,[1]; [6],13.8 ng/mL
same,Tmax,[1]; [6],1.5 h
same,half-life,"[1]; both sexes, po, 8 mg/kg, 8 mg/kg (Gr. 4), Day 5, read-out: T1/2 (converted)",6.4 h
same,AUC(0-t),[1]; [7],86 ng·h/mL
same,Cmax,[1]; [7],31.2 ng/mL
same,Tmax,[1]; [7],1 h
same,half-life,"[1]; both sexes, po, 12 mg/kg, 12 mg/kg (Gr. 2), Day 1, read-out: T1/2 (converted)",6.6 h
same,AUC(0-t),[1]; [8],214 ng·h/mL
same,Cmax,[1]; [8],48.8 ng/mL
same,Tmax,[1]; [8],1 h
same,half-life,"[1]; both sexes, po, 12 mg/kg, 12 mg/kg (Gr. 2), Day 7, read-out: T1/2 (converted)",7.4 h
same,Tmax,"[1]; both sexes, po, after oral administration, all groups",1 to 1.5 h
same,AUC(0-t),[1]; [9],1.2 ng·h/mL
same,Cmax,[1]; [9],0.18 ng/mL
same,Tmax,[1]; [9],1 h
same,half-life,"[1]; po, 0.5 mg/kg, 0.5 mg/kg (Gr. 1), Day 7, read-out: T1/2 (converted)",18.5 h
same,AUC(0-t),[1]; [10],10.5 ng·h/mL
same,Cmax,[1]; [10],2.95 ng/mL
same,Tmax,[1]; [10],1 h
same,half-life,"[1]; po, 4 mg/kg, 4 mg/kg (Gr. 1), Day 1, read-out: T1/2 (converted)",4.4 h
same,AUC(0-t),[1]; [11],9.5 ng·h/mL
same,Cmax,[1]; [11],2.3 ng/mL
same,Tmax,[1]; [11],1 h
same,half-life,"[1]; po, 4 mg/kg, 4 mg/kg (Gr. 1), Day 5, read-out: T1/2 (converted)",8.4 h
same,AUC(0-t),[1]; [12],10.9 ng·h/mL
same,Cmax,[1]; [12],3.06 ng/mL
same,Tmax,[1]; [12],1 h
same,tolerability,[1]; daily 0.5 and 4 mg/kg/day for 10 or 12 days,tolerated
same,tolerability,[1]; daily 8 and 12 mg/kg/day for 10 days,not tolerated
same,complete responders,PR6511; 6 mg/kg once daily,3/8
same,partial responder,PR6511; 6 mg/kg once daily,2/8
same,tumor-free survivors,PR6511; 6 mg/kg once daily,3/8
same,complete responders,PR6511; [13],4/8
same,partial responders,PR6511; [13],2/8
same,tumor-free survivors,PR6511; [13],3/8
same,tumor response,"PR6511; 10 mg/kg for approx. 8-10 days, then breaks/3 mg/kg days 51-57",full tumor regressions
same,tumor re-growth,"PR6511; 3 weeks after end of treatment, fully regressed tumors",no re-growth of tumors
same,tumor response,"PR6511; 6 or 10 mg/kg daily oral, study days 38-57",substantial tumor regressions up to erradication of tumors
same,PSA in blood,PR6511; PR6511,effective PSA reduction
